What was measured:
[1] = system: NCI-H460; test: Proliferation assay (Alamar Blue / XTT), NCI-H460; format: cell-based; conditions: Homo sapiens; cell line NCI-H460 (lung)
[2] = system: SKOV-3; test: Proliferation assay (Alamar Blue / XTT), SKOV-3; format: cell-based; conditions: Homo sapiens, SK-OV-3; cell line SKOV-3 (ovaries)
[3] = system: HCT116; test: Proliferation assay (Alamar Blue / XTT), HCT116; format: cell-based; conditions: Homo sapiens; cell line HCT-116 (colon)
[4] = system: MDA MB468; test: Proliferation assay (Alamar Blue / XTT), MDA MB468; format: cell-based; conditions: Homo sapiens, MDA-MB-468; cell line MDA-MB468 (breast)
[5] = system: PC-3; test: Proliferation assay (Alamar Blue / XTT), PC-3; format: cell-based; conditions: Homo sapiens, cell line PC3 (prostate)
[6] = system: A549; test: Proliferation assay (Alamar Blue / XTT), A549; format: cell-based; conditions: Homo sapiens; cell line A549 (lung)
[7] = system: U87MG; test: Proliferation assay (Alamar Blue / XTT), U87MG; format: cell-based; conditions: Homo sapiens, U-87 MG; cell line U87MG (glioma)
[8] = system: RKOP27; test: Proliferation assay (Alamar Blue / XTT), RKOP27; format: cell-based; conditions: Homo sapiens; cell line RKOp27 (colon)
[9] = system: A2780; test: XTT proliferation test, A2780; format: cell-based; conditions: Homo sapiens, cell line A2780 (ovary), non-resistant
From the text: (§1) For further characterization, the substances according to the invention were examined in resistant tumour cell lines compared to non-resistant wild-type tumour cell lines.
(§2) The cell lines examined are the cell line A2780 (ovary), the cis-platin-resistant cell line A2780 (ovary), the cell line L1210 (leukaemia), the vincristine-resistant cell line L1210 (leukaemia), the cell line MESSA (uterus), the doxorubicin-resistant cell line MESSA Dx5 (uterus), the cell line NCIH69 (lung) and the multi-drug-resistant cell line NCIH69 AR (lung).

[10] = system: A2780 cis-Pt; test: XTT proliferation test, cis-platin-resistant A2780; format: cell-based; conditions: Homo sapiens, cis-platin-resistant cell line A2780 (ovary)
From the text: as §1, §2

[11] = system: L1210; test: XTT proliferation test, L1210; format: cell-based; conditions: Mus musculus, cell line L1210 (leukaemia), non-resistant
From the text: as §1, §2

[12] = system: L1210 VCR; test: XTT proliferation test, vincristine-resistant L1210; format: cell-based; conditions: Mus musculus, vincristine-resistant cell line L1210 (leukaemia)
From the text: as §1, §2

[13] = system: MESSA; test: XTT proliferation test, MESSA; format: cell-based; conditions: Homo sapiens, MES-SA, cell line MESSA (uterus), non-resistant
From the text: as §1, §2

[14] = system: MESSA DX5; test: XTT proliferation test, doxorubicin-resistant MESSA Dx5; format: cell-based; conditions: Homo sapiens, MES-SA/Dx5, doxorubicin-resistant cell line MESSA Dx5 (uterus)
From the text: as §1, §2

[15] = system: NCI H69; test: XTT proliferation test, NCI H69; format: cell-based; conditions: Homo sapiens, cell line NCIH69 (lung), non-resistant
From the text: as §1, §2

[16] = system: NCI H69 AR; test: XTT proliferation test, multi-drug-resistant NCI H69 AR; format: cell-based; conditions: Homo sapiens, NCI-H69AR, multi-drug-resistant cell line NCIH69 AR (lung)
From the text: as §1, §2

[17] = system: L363; test: Proliferation assay (Alamar Blue / XTT), L363; format: cell-based; conditions: Homo sapiens, L-363; cell line L363 (leukaemia)
[18] = system: TMM; test: Proliferation assay (Alamar Blue / XTT), TMM; format: cell-based; conditions: Homo sapiens; cell line TMM (leukaemia)
[19] = system: RS4, 11; test: Proliferation assay (Alamar Blue / XTT), RS4, 11; format: cell-based; conditions: Homo sapiens; cell line RS4,11 (leukaemia)
[20] = system: HSB-2; test: Proliferation assay (Alamar Blue / XTT), HSB-2; format: cell-based; conditions: Homo sapiens, HSB2; cell line HSB-2 (leukaemia)
[21] = system: NALM-6; test: Proliferation assay (Alamar Blue / XTT), NALM-6; format: cell-based; conditions: Homo sapiens; cell line NALM-6 (leukaemia)
[22] = system: MOLT-3; test: Proliferation assay (Alamar Blue / XTT), MOLT-3; format: cell-based; conditions: Homo sapiens; cell line MOLT-3 (leukaemia)
[23] = system: MOLT-16; test: Proliferation assay (Alamar Blue / XTT), MOLT-16; format: cell-based; conditions: Homo sapiens; cell line MOLT-16 (leukaemia)
[24] = system: KB-HeLa; test: Proliferation assay (Alamar Blue / XTT), KB-HeLa; format: cell-based; conditions: Homo sapiens; cell line KB/HeLa (cervix)
[25] = system: MCF-7; test: Proliferation assay (Alamar Blue / XTT), MCF-7; format: cell-based; conditions: Homo sapiens, MCF7; cell line MCF-7 (breast)
[26] = system: MDA-MB435; test: Proliferation assay (Alamar Blue / XTT), MDA-MB435; format: cell-based; conditions: Homo sapiens, MDA-MB-435; cell line MDA-MBA435 (breast)
[27] = system: LNCaP; test: Proliferation assay (Alamar Blue / XTT), LNCaP; format: cell-based; conditions: Homo sapiens; cell line LnCap (prostate)

SMILES | EC50 [1] | EC50 [2] | EC50 [3] | EC50 [4] | EC50 [5] | EC50 [6] | EC50 [7] | melting point | EC50 [8] | EC50 [9] | EC50 [10] | EC50 [11] | EC50 [12] | EC50 [13] | EC50 [14] | EC50 [15] | EC50 [16] | other results
Cc1cc(-c2ccc3ncc(NC(=S)NC(C)C)nc3c2)cc(C)c1O [Compound 31, 1-[7-(4-Hydroxy-3,5-dimethylphenyl)quinoxalin-2-yl]-3-isopropylthiourea] | 60 nM | 45 nM | 30 nM | 25 nM | 15 nM | 23 nM | 13 nM | 269 to 271 °C | – | – | – | – | – | – | – | – | – | –
Cc1cc(-c2ccc3ncc(NC(=S)NC4CCC4)nc3c2)cc(C)c1O [Compound 34, 1-Cyclobutyl-3-[7-(4-hydroxy-3,5-dimethylphenyl)quinoxalin-2-yl]-thiourea] | 52 nM | 50 nM | 36 nM | 30 nM | 12 nM | 16 nM | 224 nM | 285 to 286 °C | 58 nM | – | – | – | – | – | – | – | – | –
CCNC(=S)Nc1cnc2ccc(-c3cc(C)c(O)c(C)c3)cc2n1 [Compound 22, 1-Ethyl-3-[7-(4-hydroxy-3,5-dimethylphenyl)quinoxalin-2-yl]thiourea] | 27 nM | 30 nM | 7 nM | 53 nM | 11 nM | 8 nM | 2 nM | 243 to 244 °C | 28 nM | 18 nM | 14 nM | 15 nM | 19 nM | 141 nM | 38 nM | 10 nM | 8 nM | –
Cc1cc(-c2ccc3ncc(NC(=O)NC(C)(C)C)nc3c2)cc(C)c1O [Compound 9, 1-tert-Butyl-3-[7-(4-hydroxy-3,5-dimethylphenyl)quinoxalin-2-yl]urea] | 238 nM | 248 nM | 229 nM | 263 nM | 112 nM | 289 nM | 181 nM | – | 176 nM | – | – | – | – | – | – | – | – | –
Cc1cc(-c2ccc3ncc(NC(=S)NC4CC4)nc3c2)cc(C)c1O [Compound 23, 1-Cyclopropyl-3-[7-(4-hydroxy-3,5-dimethylphenyl)quinoxalin-2-yl]-thiourea] | 21 nM | 16 nM | 3 nM | 148 nM | 3 nM | 9 nM | 2 nM | 274 to 276 °C | 20 nM | 22 nM | 19 nM | 5 nM | 4 nM | 48 nM | 16 nM | 4 nM | 0.8 nM | –
CCCCNC(=S)Nc1cnc2ccc(-c3cc(C)c(O)c(C)c3)cc2n1 [Compound 32, 1-Butyl-3-[7-(4-hydroxy-3,5-dimethylphenyl)quinoxalin-2-yl]thiourea] | 30 nM | 27 nM | 16 nM | 20 nM | 9 nM | 9 nM | 3 nM | 278 to 280 °C | – | – | – | – | – | – | – | – | – | –
CCCCNC(=O)Nc1cnc2ccc(-c3cc(C)c(O)c(C)c3)cc2n1 [Compound 18, 1-Butyl-3-[7-(4-hydroxy-3,5-dimethylphenyl)quinoxalin-2-yl]urea] | 38 nM | 32 nM | 21 nM | 30 nM | 16 nM | 46 nM | 8 nM | 276 to 280 °C | – | – | – | – | – | – | – | – | – | –
Cc1cc(-c2ccc3ncc(NC(=O)NC(C)C)nc3c2)cc(C)c1O [Compound 17, 1-[7-(4-Hydroxy-3,5-dimethylphenyl)quinoxalin-2-yl]-3-isopropylurea] | 47 nM | 40 nM | 24 nM | 39 nM | 28 nM | 29 nM | 10 nM | 280 to 283 °C | 26 nM | 0.3 nM | 0.5 nM | 2 nM | 4 nM | 152 nM | 139 nM | 27 nM | 86 nM | EC50 [17]: 78 nM; EC50 [18]: 32 nM; EC50 [19]: 37 nM; EC50 [20]: 37 nM; EC50 [21]: 54 nM; EC50 [22]: 36 nM; EC50 [23]: 56 nM; EC50 [24]: 37 nM; EC50 [25]: 32 nM; EC50 [26]: 18 nM; EC50 [27]: 40 nM

— patent US8394801B2, “Quinoxaline derivatives and their use for treating benign and malignant tumour disorders” (Aeterna Zentaris GmbH, priority 2009, dated 2013)
